{"source": "patent US20060063789A1", "about": "“Aminobenzamide derivatives as glycogen synthase kinase 3 beta inhibitors” (priority 2001, published 2006)"}
{"tested_on": "not given", "test": "not given", "conditions": "not given", "units": {"melting point": "°C"}}
{"smiles": "NC(=O)c1cccc(Nc2ncc(Br)c(OCc3ccccc3)n2)c1", "note": "[Compound 4]", "melting point": "216 to 217"}
{"smiles": "N#Cc1cnc(Nc2cccc(C(N)=O)c2)nc1OCc1ccccc1", "note": "[Compound 9, 3-[[5-cyano-4-(phenylmethoxy)-2-pyrimidinyl]amino]-benzamide]", "melting point": "260 to 261"}
{"target": "GSK3β (Homo sapiens, UniProt P49841)", "sequence (P49841 whole entry, species assumed)": "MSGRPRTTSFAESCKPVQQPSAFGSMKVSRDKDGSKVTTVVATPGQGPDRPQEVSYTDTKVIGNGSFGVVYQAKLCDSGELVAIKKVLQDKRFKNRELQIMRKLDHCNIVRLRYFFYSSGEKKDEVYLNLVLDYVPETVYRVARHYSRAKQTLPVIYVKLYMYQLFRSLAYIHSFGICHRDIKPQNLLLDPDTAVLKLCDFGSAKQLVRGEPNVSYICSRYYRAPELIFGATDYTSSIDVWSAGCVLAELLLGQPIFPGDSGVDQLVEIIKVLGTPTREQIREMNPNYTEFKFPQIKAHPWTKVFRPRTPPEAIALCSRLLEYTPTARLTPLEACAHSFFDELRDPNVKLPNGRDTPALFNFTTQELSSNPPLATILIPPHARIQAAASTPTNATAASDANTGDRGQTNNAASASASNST", "test": "GSK3beta assay (SPA, biotinylated phosphorylated CREB peptide, ATP-P33)", "type": "biochemical", "conditions": "−log IC50 (M); 19 nM GSK3β, 5 μM biotinylated phosphorylated CREB peptide, 1 μM ATP, 25° C., one hour", "description": "GSK3beta assays were performed at 25° C. in a 100 μl reaction volume of 25 mM Tris (pH 7.4) containing 10 mM MgCl2, 1 mM DTT, 0.1 mg/ml BSA, 5% glycerol and containing 19 nM GSK3β, 5 μM biotinylated phosphorylated CREB peptide, 1 μM ATP, 2 nM ATP-P^33 and a suitable amount of a test compound of formula (I) or (I′). After one hour, the reaction was terminated by adding 70 μl of Stop mix (1 mM ATP, 18 mg/ml streptavidin coated PVT SPA bead pH 11.0). The beads to which the phosphorylated CREB peptide is attached were allowed to settle for 30 minutes and the radioactivity of the beads was counted in a microtiterplate scintillation counter and compared with the results obtained in a control experiment (without the presence of a test compound) in order to determine the percentage of GSK3β inhibition. The IC50 value, i.e. the concentration (M) of the test compound at which 50 % of GSK3β is inhibited, was calculated from the dose response curve obtained by performing the above-described GSK3β assay in the presence of different amounts of the test compound.\nTable 4 lists pIC50 values (−log IC50 (M)) obtained in the above-described test for the present compounds.", "units": {"IC50": "M"}}
{"smiles": "NC(=O)c1cccc(Nc2ncc([N+](=O)[O-])c(NCc3ccccc3)n2)c1", "note": "[Compound 1]", "IC50": "1.82e-07"}
{"smiles": "NC(=O)c1cccc(Nc2ncc(Br)c(OCc3ccccc3)n2)c1", "note": "[Compound 4]", "IC50": "5.25e-08"}
{"smiles": "N#Cc1cnc(Nc2cccc(C(N)=O)c2)nc1OCc1ccccc1", "note": "[Compound 9, 3-[[5-cyano-4-(phenylmethoxy)-2-pyrimidinyl]amino]-benzamide]", "IC50": "1.82e-08"}
{"smiles": "NC(=O)c1cccc(Nc2nccc(OCc3ccccc3)n2)c1", "note": "[Compound 17]", "IC50": "1.41e-06"}
{"smiles": "NC(=O)c1ccc(Nc2ncc(Br)c(OCc3ccccc3)n2)cc1", "note": "[Compound 22, 4-[[5-bromo-4-(phenylmethoxy)-2-pyrimidinyl]amino]-benzamide]", "IC50": "6.46e-08"}
{"smiles": "N#Cc1cnc(Nc2ccc(C(N)=O)cc2)nc1OCc1ccccc1", "note": "[Compound 23, 4-[[5-cyano-4-(phenylmethoxy)-2-pyrimidinyl]amino]-benzamide]", "IC50": "2.19e-08"}
